The data set in a line: Single oral (PO) dose pharmacokinetics study in rats; plasma concentration of MDMA (and prodrug) by LC-MS/MS. To be noted: male SD rats.
The mark [1] stands for this setting: 0.50 h after oral dosing of prodrug 10 mg/Kg.
Where [2] appears, read: 1.00 h after oral dosing of prodrug 10 mg/Kg.
Setting [3] is: 2.00 h after oral dosing of prodrug 10 mg/Kg.
Setting [4] is: 4.00 h after oral dosing of prodrug 10 mg/Kg.
Where [5] appears, read: 7.00 h after oral dosing of prodrug 10 mg/Kg.
Setting [6] is: 24.0 h after oral dosing of prodrug 10 mg/Kg.

Regarding `CC(=O)OCC(C)(C)CC(=O)N(C)C(C)Cc1ccc2c(c1)OCO2` (stereo not shown) [(3-{[2-(2H-1,3-Benzodioxol-5-yl)-1-methylethyl]-N-methylcarbamoyl}-2,2-dimethylpropyl acetate], the “Mean plasma concentration of metabolite MDMA” value (shortened to “Mean plasma concentration”) under setting [1] is on record as “BLQ (BLQ: Below Lower Limit of Quantification (0.5 ng/mL))”; the “Mean plasma concentration” value under setting [2] was “BLQ (BLQ: Below Lower Limit of Quantification (0.5 ng/mL))”; the “Mean plasma concentration” value under setting [3] is “BLQ (BLQ: Below Lower Limit of Quantification (0.5 ng/mL))”; the “Mean plasma concentration” value under setting [4] is “BLQ (BLQ: Below Lower Limit of Quantification (0.5 ng/mL))”; the “Mean plasma concentration” value under setting [5] was “BLQ (BLQ: Below Lower Limit of Quantification (0.5 ng/mL))”; the “Mean plasma concentration” value under setting [6] was “BLQ (BLQ: Below Lower Limit of Quantification (0.5 ng/mL))”.
Consider `CC(Cc1ccc2c(c1)OCO2)N(C)C(=O)CCCCC(=O)O` (stereo not shown) [Adipate prodrug of MDMA, 5-{[2-(2H-1,3-Benzodioxol-5-yl)-1-methyl-ethyl]-N-methylcarbamoyl}valeric acid], for which the “Mean plasma concentration” value is “BLQ (BLQ: Below Lower Limit of Quantification (0.5 ng/mL))” under setting [1]; “BLQ (BLQ: Below Lower Limit of Quantification (0.5 ng/mL))” under setting [2]; “BLQ (BLQ: Below Lower Limit of Quantification (0.5 ng/mL))” under setting [3]; “BLQ (BLQ: Below Lower Limit of Quantification (0.5 ng/mL))” under setting [4]; “BLQ (BLQ: Below Lower Limit of Quantification (0.5 ng/mL))” under setting [5]; “BLQ (BLQ: Below Lower Limit of Quantification (0.5 ng/mL))” under setting [6].
`CC(Cc1ccc2c(c1)OCO2)N(C)C(=O)N(C)C` (stereo not shown) [Dimethylurea prodrug of MDMA, 1-[2-(2H-1,3-Benzodioxol-5-yl)-1-methyl-ethyl]-1,3,3-trimethylurea]: the “Mean plasma concentration” value reads like this: under setting [1], “BLQ (BLQ: Below Lower Limit of Quantification (0.5 ng/mL))”; under setting [2], “BLQ (BLQ: Below Lower Limit of Quantification (0.5 ng/mL))”; under setting [3], “BLQ (BLQ: Below Lower Limit of Quantification (0.5 ng/mL))”; under setting [4], “BLQ (BLQ: Below Lower Limit of Quantification (0.5 ng/mL))”; under setting [5], “BLQ (BLQ: Below Lower Limit of Quantification (0.5 ng/mL))”; under setting [6], “BLQ (BLQ: Below Lower Limit of Quantification (0.5 ng/mL))”.
As to `CCOC(=O)N(C)C(C)Cc1ccc2c(c1)OCO2` (stereo not shown) [Ethyl carbamate prodrug of MDMA, Ethyl N-[2-(1,3-benzodioxol-5-yl)-1-methyl-ethyl]-N-methyl-carbamate], the “Mean plasma concentration” value under setting [1] is reported as “BLQ (BLQ: Below Lower Limit of Quantification (0.5 ng/mL))”; the “Mean plasma concentration” value under setting [2] was “BLQ (BLQ: Below Lower Limit of Quantification (0.5 ng/mL))”; the “Mean plasma concentration” value under setting [3] is on record as “BLQ (BLQ: Below Lower Limit of Quantification (0.5 ng/mL))”; the “Mean plasma concentration” value under setting [4] was “BLQ (BLQ: Below Lower Limit of Quantification (0.5 ng/mL))”; the “Mean plasma concentration” value under setting [5] is reported as “BLQ (BLQ: Below Lower Limit of Quantification (0.5 ng/mL))”; the “Mean plasma concentration” value under setting [6] was “BLQ (BLQ: Below Lower Limit of Quantification (0.5 ng/mL))”.
On to `CC(Cc1ccc2c(c1)OCO2)N(C)C(=O)CCCC(=O)O` (stereo not shown) [Glutarate Prodrug of MDMA, 4-{[2-(2H-1,3-Benzodioxol-5-yl)-1-methyl-ethyl]-N-methylcarbamoyl}butyric acid], for which the “Mean plasma concentration” value runs as follows: under setting [1], “BLQ (BLQ: Below Lower Limit of Quantification (0.5 ng/mL))”; under setting [2], “BLQ (BLQ: Below Lower Limit of Quantification (0.5 ng/mL))”; under setting [3], “BLQ (BLQ: Below Lower Limit of Quantification (0.5 ng/mL))”; under setting [4], “BLQ (BLQ: Below Lower Limit of Quantification (0.5 ng/mL))”; under setting [5], “BLQ (BLQ: Below Lower Limit of Quantification (0.5 ng/mL))”; under setting [6], “BLQ (BLQ: Below Lower Limit of Quantification (0.5 ng/mL))”.
As for `CC(C)COC(=O)N(C)C(C)Cc1ccc2c(c1)OCO2` (stereo not shown) [Isobutyl carbamate prodrug of MDMA, isobutyl N-[2-(1,3-benzodioxol-5-yl)-1-methyl-ethyl]-N-methyl-carbamate], the “Mean plasma concentration” value was “BLQ (BLQ: Below Lower Limit of Quantification (0.5 ng/mL))” under setting [1]; “BLQ (BLQ: Below Lower Limit of Quantification (0.5 ng/mL))” under setting [2]; “BLQ (BLQ: Below Lower Limit of Quantification (0.5 ng/mL))” under setting [3]; “BLQ (BLQ: Below Lower Limit of Quantification (0.5 ng/mL))” under setting [4]; “BLQ (BLQ: Below Lower Limit of Quantification (0.5 ng/mL))” under setting [5]; “BLQ (BLQ: Below Lower Limit of Quantification (0.5 ng/mL))” under setting [6].
For `CC(C)OC(=O)N(C)C(C)Cc1ccc2c(c1)OCO2` (stereo not shown) [Isopropyl carbamate prodrug of MDMA, isopropyl N-[2-(1,3-benzodioxol-5-yl)-1-methyl-ethyl]-N-methyl-carbamate], the “Mean plasma concentration” value is reported as “BLQ (BLQ: Below Lower Limit of Quantification (0.5 ng/mL))” under setting [1]; “BLQ (BLQ: Below Lower Limit of Quantification (0.5 ng/mL))” under setting [2]; “BLQ (BLQ: Below Lower Limit of Quantification (0.5 ng/mL))” under setting [3]; “BLQ (BLQ: Below Lower Limit of Quantification (0.5 ng/mL))” under setting [4]; “BLQ (BLQ: Below Lower Limit of Quantification (0.5 ng/mL))” under setting [5]; “BLQ (BLQ: Below Lower Limit of Quantification (0.5 ng/mL))” under setting [6].
Take `CC(Cc1ccc2c(c1)OCO2)N(C)C(=O)[C@@H](N)CCCCN` (stereo partly drawn) [Lysine prodrug of MDMA, (2S)-2,6-diamino-N-[2-(1,3-benzodioxol-5-yl)-1-methyl-ethyl]-N-methyl-hexanamide]: the “Mean plasma concentration” value reads like this: under setting [1], “BLQ (BLQ: Below Lower Limit of Quantification (0.5 ng/mL))”; under setting [2], “BLQ (BLQ: Below Lower Limit of Quantification (0.5 ng/mL))”; under setting [3], “BLQ (BLQ: Below Lower Limit of Quantification (0.5 ng/mL))”; under setting [4], “BLQ (BLQ: Below Lower Limit of Quantification (0.5 ng/mL))”; under setting [5], “BLQ (BLQ: Below Lower Limit of Quantification (0.5 ng/mL))”; under setting [6], “BLQ (BLQ: Below Lower Limit of Quantification (0.5 ng/mL))”. In addition, under “oral dosing of prodrug 10 mg/Kg, analyte prodrug, mean”, the “Tlast of MDMA prodrug” value amounted to 24.0 h.
As for `CC(=O)N(C)C(C)Cc1ccc2c(c1)OCO2` (stereo not shown) [Methyl amide (acetyl) prodrug of MDMA, N-[2-(2H-1,3-Benzodioxol-5-yl)-1-methyl-ethyl]-N-methylacetamide], the “Mean plasma concentration” value under setting [1] is “BLQ (BLQ: Below Lower Limit of Quantification (0.5 ng/mL))”; the “Mean plasma concentration” value under setting [2] is recorded as “BLQ (BLQ: Below Lower Limit of Quantification (0.5 ng/mL))”; the “Mean plasma concentration” value under setting [3] is on record as “BLQ (BLQ: Below Lower Limit of Quantification (0.5 ng/mL))”; the “Mean plasma concentration” value under setting [4] is “BLQ (BLQ: Below Lower Limit of Quantification (0.5 ng/mL))”; the “Mean plasma concentration” value under setting [5] is “BLQ (BLQ: Below Lower Limit of Quantification (0.5 ng/mL))”; the “Mean plasma concentration” value under setting [6] is “BLQ (BLQ: Below Lower Limit of Quantification (0.5 ng/mL))”.
`CC(Cc1ccc2c(c1)OCO2)N(C)C(=O)C1CCOC1` (stereo not shown) [N-[2-(2H-1,3-Benzodioxol-5-yl)-1-methyl-ethyl]-N-methyl-tetrahydro-3-furamide]: the “Mean plasma concentration” value runs as follows: under setting [1], “BLQ (BLQ: Below Lower Limit of Quantification (0.5 ng/mL))”; under setting [2], “BLQ (BLQ: Below Lower Limit of Quantification (0.5 ng/mL))”; under setting [3], “BLQ (BLQ: Below Lower Limit of Quantification (0.5 ng/mL))”; under setting [4], “BLQ (BLQ: Below Lower Limit of Quantification (0.5 ng/mL))”; under setting [5], “BLQ (BLQ: Below Lower Limit of Quantification (0.5 ng/mL))”; under setting [6], “BLQ (BLQ: Below Lower Limit of Quantification (0.5 ng/mL))”.
Regarding `CC(Cc1ccc2c(c1)OCO2)N(C)C(=O)C1(C)CCOCC1` (stereo not shown) [N-[2-(2H-1,3-Benzodioxol-5-yl)-1-methylethyl]-N-methyl-4-methyltetrahydro-2H-pyran-4-carboxamide], the “Mean plasma concentration” value runs as follows: under setting [1], “BLQ (BLQ: Below Lower Limit of Quantification (0.5 ng/mL))”; under setting [2], “BLQ (BLQ: Below Lower Limit of Quantification (0.5 ng/mL))”; under setting [3], “BLQ (BLQ: Below Lower Limit of Quantification (0.5 ng/mL))”; under setting [4], “BLQ (BLQ: Below Lower Limit of Quantification (0.5 ng/mL))”; under setting [5], “BLQ (BLQ: Below Lower Limit of Quantification (0.5 ng/mL))”; under setting [6], “BLQ (BLQ: Below Lower Limit of Quantification (0.5 ng/mL))”.

(Values after patent US20240317724A1, “3,4-METHYLENEDIOXYMETHAMPHETAMINE AND RELATED PS[…] USES THEREOF” (Terran Biosciences Inc., priority 2021, published 2024).)
